{"source": "patent US20240409536A1", "about": "“COMPOUNDS AND METHODS FOR MODULATING SPLICING” (REMIX THERAPEUTICS INC., priority 2021, published 2024)", "key": {"HTT mRNA": {"tested_on": "HTT mRNA", "assay": "Gene panel canonical junction qPCR assay, HTT CJ mRNA decrease", "format": "cell-based, human", "conditions": "Homo sapiens, canonical junction qPCR, read-out: HTT IC50 (decrease in CJ mRNA levels)", "outline": "(§1)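 A673 or K562 cells were treated with compound, and lysates underwent cDNA synthesis and qPCR with a CY5 5′-nuclease probe or primer spanning the canonical exon junction. ΔCt versus GAPDH, GUSB or PPIA was normalized to DMSO (2^(−ΔΔCt)), converted to percentage response and fitted four-parameter logistic for IC50.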"}, "Target C mRNA": {"tested_on": "Target C mRNA", "assay": "Gene panel canonical junction qPCR assay, Target C CJ mRNA decrease", "format": "cell-based", "conditions": "Homo sapiens, canonical junction qPCR, read-out: Target C IC50 (decrease in CJ mRNA levels)", "outline": "as §1"}, "Target C": {"tested_on": "Target C", "assay": "HiBiT protein abundance assay, Target C (K562 HiBiT knock-in cells)", "format": "cell-based, human", "conditions": "24 hours", "outline": "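Protein abundance read by HiBiT lytic luminescence after 24 h compound exposure (37 °C) of knock-in K562 cells, 10000 cells/well in IMDM+1% FBS. Dosing: 10 points, 3-fold, top 10 μM final, ≤0.25% DMSO. Four-parameter logistic fit gave concentration reducing abundance to 50% of untreated control.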"}, "K562 cells": {"tested_on": "K562 cells", "assay": "Cell Titer Glo 2.0 cell viability assay in K562 cells", "conditions": "72 hours", "method": "Compounds described herein were screened for toxicity in K562 (human chronic myelogenous leukemia) and SH-SY5Y (human neuroblastoma) cells using a Cell Titer Glo 2.0 assay.\nCells were plated at 500 cells/well (K562 cells) in 45 μL of IMDM supplemented with 10% FBS in a 384-well opaque plate. Wells containing only medium were used as a blank control. Test compounds (e.g., compounds of Formula (I), (II), or (III)) were first serially diluted in DMSO then diluted 1:100 with IMDM+10% FBS. The final concentration of DMSO was 0.1% in each well. The cells were incubated for 72 hours at 37° C. and 5% CO2 before assaying with Cell Titer Glo 2.0 reagent."}}, "note": "Counter-ions that a name gives are not always drawn."}
{"smiles": "Cc1cn2cc(NC(=O)c3ccc(N4CCC(N(C)C)C4)c4ccnnc34)cc(F)c2n1", "note": "(stereo not shown) [Compound 134]", "values": [{"measurement": "IC50", "setting": "HTT mRNA", "value": "1 to 10", "unit": "µM"}, {"measurement": "IC50", "setting": "Target C mRNA", "value": "1 to 10", "unit": "µM"}, {"measurement": "IC50", "setting": "Target C", "value": "1 to 10", "unit": "µM"}, {"measurement": "Viability", "setting": "K562 cells", "value": "B (B represents 100-1000 nM)"}]}
{"smiles": "Cc1cn2cc(NC(=O)c3ccc(N4CCNCC4)c4ccnnc34)cc(C)c2n1", "note": "[Compound 125]", "values": [{"measurement": "IC50", "setting": "HTT mRNA", "value": "1 to 10", "unit": "µM"}, {"measurement": "IC50", "setting": "Target C mRNA", "value": "1 to 10", "unit": "µM"}, {"measurement": "IC50", "setting": "Target C", "value": "1 to 10", "unit": "µM"}, {"measurement": "Viability", "setting": "K562 cells", "value": "B (B represents 100-1000 nM)"}]}
{"smiles": "Cc1cn2cc(NC(=O)c3ccc(N4CCNCC4)c4ccnnc34)[nH]c(=O)c2n1", "note": "[Compound 177, N-{2-methyl-8-oxo-7H-imidazo[1,2-a]pyrazin-6-yl}-5-(piperazin-1-yl)cinnoline-8-carboxamide trifluoroacetic acid salt]", "values": [{"measurement": "IC50", "setting": "HTT mRNA", "value": "0.1 to 1", "unit": "µM"}, {"measurement": "IC50", "setting": "Target C mRNA", "value": "0.1 to 1", "unit": "µM"}, {"measurement": "IC50", "setting": "Target C", "value": "0.1 to 1", "unit": "µM"}, {"measurement": "Viability", "setting": "K562 cells", "value": "B (B represents 100-1000 nM)"}]}
{"smiles": "Cc1cn2cc(NC(=O)c3ccc(N4CCC5(CCN5)CC4)c4nccnc34)cc(F)c2n1", "note": "[Compound 189, 8-{1,7-diazaspiro[3.5]nonan-7-yl}-N-{8-fluoro-2-methylimidazo[1,2-a]pyridin-6-yl}quinoxaline-5-carboxamide]", "values": [{"measurement": "IC50", "setting": "HTT mRNA", "value": "0.1 to 1", "unit": "µM"}, {"measurement": "IC50", "setting": "Target C mRNA", "value": "1 to 10", "unit": "µM"}, {"measurement": "IC50", "setting": "Target C", "value": "1 to 10", "unit": "µM"}, {"measurement": "Viability", "setting": "K562 cells", "value": "B (B represents 100-1000 nM)"}]}
{"smiles": "COCCOc1cc2c(N3CCNCC3)ccc(C(=O)Nc3cc(F)c4nc(C)cn4c3)c2nn1", "note": "[Compound 199, N-{8-fluoro-2-methylimidazo[1,2-a]pyridin-6-yl}-3-(2-methoxyethoxy)-5-(piperazin-1-yl)cinnoline-8-carboxamide]", "values": [{"measurement": "IC50", "setting": "HTT mRNA", "value": "> 10", "unit": "µM"}, {"measurement": "IC50", "setting": "Target C mRNA", "value": "> 10", "unit": "µM"}, {"measurement": "IC50", "setting": "Target C", "value": "1 to 10", "unit": "µM"}, {"measurement": "Viability", "setting": "K562 cells", "value": "B (B represents 100-1000 nM)"}]}
{"smiles": "Cc1cn2cc(NC(=O)c3ccc(N4CCNC(C)C4)c4ccnnc34)cc(F)c2n1", "note": "(stereo not shown) [Compound 128]", "values": [{"measurement": "IC50", "setting": "HTT mRNA", "value": "0.1 to 1", "unit": "µM"}, {"measurement": "IC50", "setting": "Target C mRNA", "value": "1 to 10", "unit": "µM"}, {"measurement": "IC50", "setting": "Target C", "value": "0.1 to 1", "unit": "µM"}, {"measurement": "Viability", "setting": "K562 cells", "value": "B (B represents 100-1000 nM)"}]}
{"smiles": "Cc1cn2cc(NC(=O)c3ccc(N4CCC(NC(C)(C)C)CC4)c4ccnnc34)cc(F)c2n1", "note": "[Compound 138]", "values": [{"measurement": "IC50", "setting": "HTT mRNA", "value": "1 to 10", "unit": "µM"}, {"measurement": "IC50", "setting": "Target C mRNA", "value": "1 to 10", "unit": "µM"}, {"measurement": "IC50", "setting": "Target C", "value": "1 to 10", "unit": "µM"}, {"measurement": "Viability", "setting": "K562 cells", "value": "C (C represents 1000-9999 nM)"}]}
{"smiles": "Cc1cnc2c(N3CCNCC3)ccc(C(=O)Nc3cc(F)c4nc(C)cn4c3)c2n1", "note": "[Compound 197, N-{8-fluoro-2-methylimidazo[1,2-a]pyridin-6-yl}-3-methyl-8-(piperazin-1-yl)quinoxaline-5-carboxamide; trifluoroacetic acid]", "values": [{"measurement": "IC50", "setting": "HTT mRNA", "value": "1 to 10", "unit": "µM"}, {"measurement": "IC50", "setting": "Target C mRNA", "value": "> 10", "unit": "µM"}, {"measurement": "IC50", "setting": "Target C", "value": "1 to 10", "unit": "µM"}, {"measurement": "Viability", "setting": "K562 cells", "value": "C (C represents 1000-9999 nM)"}]}
{"smiles": "CNC1CCN(c2ccc(C(=O)Nc3cc(F)c4nc(C)cn4c3)c3nc(C)ccc23)C1", "note": "(stereo not shown) [Compound 196, N-{8-fluoro-2-methylimidazo[1,2-a]pyridin-6-yl}-2-methyl-5-[3-(methylamino)pyrrolidin-1-yl]quinoline-8-carboxamide 2,2,2-trifluoroacetate]", "values": [{"measurement": "IC50", "setting": "HTT mRNA", "value": "1 to 10", "unit": "µM"}, {"measurement": "IC50", "setting": "Target C mRNA", "value": "1 to 10", "unit": "µM"}, {"measurement": "IC50", "setting": "Target C", "value": "1 to 10", "unit": "µM"}, {"measurement": "Viability", "setting": "K562 cells", "value": "A (A represents <100 nM)"}]}
{"smiles": "Cc1cn2nc(NC(=O)c3ccc(N4CCNCC4)c4ccnnc34)cc2c(C)n1", "note": "[Compound 123]", "values": [{"measurement": "IC50", "setting": "HTT mRNA", "value": "1 to 10", "unit": "µM"}, {"measurement": "IC50", "setting": "Target C mRNA", "value": "1 to 10", "unit": "µM"}, {"measurement": "IC50", "setting": "Target C", "value": "1 to 10", "unit": "µM"}, {"measurement": "Viability", "setting": "K562 cells", "value": "C (C represents 1000-9999 nM)"}]}
